# What was measured:
# Type in all cases: cell-based
# rat TRPV1 = target: T1, rat TRPV1 (Rattus norvegicus, UniProt O35433); assay: fluo-4 Ca2+ assay selectivity, HEK cells expressing rat TRPV1; conditions: concentrations up to 50 μM
# T1 construct: expressed in transfected cells; host or cells: HEK293
# Source text: (§1) KU-19-19 (DSMZ no. ACC 395), CAL-29 (DSMZ no. ACC 515), 647-V (DSMZ no. ACC 414), RT-4 (DSMZ no. ACC 412), and RT-112 (DSMZ no. ACC 418) bladder cancer cell lines were obtained from the Leibniz Institute DSMZ (German Collection of Microorganisms and Cell Cultures). Human TRPV3 (NM_145068, purchased from OriGene) and mouse TRPV3 (NM_001371006), rat TRPV1, mouse TRPV2, mouse TRPV4, human TRPM2, human TRPM8, and human TRPA1 were stably transfected in HEK293 cells as described before.[27] […]
# (§2) All fluorometric Ca^2+ assays were performed in HBS buffer at room temperature. […] For the primary compound screening and the generation of concentration-response analyses, a robotic liquid handling station (Freedom Evo 150; Tecan) with a built-in custom-made fluorescence plate imager was used. […] Fluorescence was excited using a 470-nm light-emitting diode, and emitted light was imaged through a 515-nm–long pass filter with a cooled Zyla 5.5 camera (Andor). Fluorescence was recorded and processed under the control of the μ-Manager 2.0 gamma software (https://micro-manager.org.[28]). After recording baseline fluorescence, compounds were dispensed into the wells via the liquid handling device. […] For further analysis, fluorescence signals were calculated for each well, corrected for background intensities and normalized to the initial signals. […]
# human TRPM2 = target: T2, human TRPM2 (Homo sapiens, UniProt O94759); assay: fluo-4 Ca2+ assay selectivity, HEK cells expressing human TRPM2; conditions: concentrations up to 50 μM
# T2 construct: expressed in transfected cells; host or cells: HEK293
# Source text: as §1, §2
# human TRPM8 = target: T3, human TRPM8 (Homo sapiens, UniProt Q7Z2W7); assay: fluo-4 Ca2+ assay selectivity, HEK cells expressing human TRPM8; conditions: concentrations up to 50 μM
# T3 construct: expressed in transfected cells; host or cells: HEK293
# Source text: as §1, §2
# human TRPA1 = target: T4, human TRPA1 (Homo sapiens, UniProt O75762); assay: fluo-4 Ca2+ assay selectivity, HEK cells expressing human TRPA1
# T4 construct: expressed in transfected cells; host or cells: HEK293
# Source text: as §1, §2
# T3 sequence (Q7Z2W7 whole entry): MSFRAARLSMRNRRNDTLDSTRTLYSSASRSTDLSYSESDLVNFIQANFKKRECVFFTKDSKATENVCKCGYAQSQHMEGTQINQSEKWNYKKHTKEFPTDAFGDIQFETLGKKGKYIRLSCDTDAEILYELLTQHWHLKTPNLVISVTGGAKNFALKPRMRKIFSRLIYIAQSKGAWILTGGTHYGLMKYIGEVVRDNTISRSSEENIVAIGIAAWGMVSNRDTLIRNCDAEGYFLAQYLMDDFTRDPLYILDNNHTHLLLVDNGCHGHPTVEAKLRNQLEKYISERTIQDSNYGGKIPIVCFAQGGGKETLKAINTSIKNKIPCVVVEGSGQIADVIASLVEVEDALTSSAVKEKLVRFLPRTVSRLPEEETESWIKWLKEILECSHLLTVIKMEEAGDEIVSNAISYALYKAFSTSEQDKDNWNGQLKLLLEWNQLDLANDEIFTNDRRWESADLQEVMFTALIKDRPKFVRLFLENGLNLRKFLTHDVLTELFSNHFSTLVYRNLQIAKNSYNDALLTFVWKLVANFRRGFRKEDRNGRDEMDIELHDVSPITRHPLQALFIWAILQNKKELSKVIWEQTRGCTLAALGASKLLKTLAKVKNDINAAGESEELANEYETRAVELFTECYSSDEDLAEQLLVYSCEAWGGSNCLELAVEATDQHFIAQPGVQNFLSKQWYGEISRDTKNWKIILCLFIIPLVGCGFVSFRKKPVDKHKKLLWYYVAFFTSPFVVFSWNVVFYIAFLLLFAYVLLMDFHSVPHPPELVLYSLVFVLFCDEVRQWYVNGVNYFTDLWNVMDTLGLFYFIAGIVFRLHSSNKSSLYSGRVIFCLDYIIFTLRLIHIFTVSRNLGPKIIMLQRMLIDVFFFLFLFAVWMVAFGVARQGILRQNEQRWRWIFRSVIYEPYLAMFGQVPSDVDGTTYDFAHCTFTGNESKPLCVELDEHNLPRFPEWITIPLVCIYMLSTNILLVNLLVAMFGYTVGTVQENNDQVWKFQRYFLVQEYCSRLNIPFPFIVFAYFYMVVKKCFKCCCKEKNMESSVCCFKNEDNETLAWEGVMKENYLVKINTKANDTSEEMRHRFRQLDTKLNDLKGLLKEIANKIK
# T4 sequence (O75762 whole entry): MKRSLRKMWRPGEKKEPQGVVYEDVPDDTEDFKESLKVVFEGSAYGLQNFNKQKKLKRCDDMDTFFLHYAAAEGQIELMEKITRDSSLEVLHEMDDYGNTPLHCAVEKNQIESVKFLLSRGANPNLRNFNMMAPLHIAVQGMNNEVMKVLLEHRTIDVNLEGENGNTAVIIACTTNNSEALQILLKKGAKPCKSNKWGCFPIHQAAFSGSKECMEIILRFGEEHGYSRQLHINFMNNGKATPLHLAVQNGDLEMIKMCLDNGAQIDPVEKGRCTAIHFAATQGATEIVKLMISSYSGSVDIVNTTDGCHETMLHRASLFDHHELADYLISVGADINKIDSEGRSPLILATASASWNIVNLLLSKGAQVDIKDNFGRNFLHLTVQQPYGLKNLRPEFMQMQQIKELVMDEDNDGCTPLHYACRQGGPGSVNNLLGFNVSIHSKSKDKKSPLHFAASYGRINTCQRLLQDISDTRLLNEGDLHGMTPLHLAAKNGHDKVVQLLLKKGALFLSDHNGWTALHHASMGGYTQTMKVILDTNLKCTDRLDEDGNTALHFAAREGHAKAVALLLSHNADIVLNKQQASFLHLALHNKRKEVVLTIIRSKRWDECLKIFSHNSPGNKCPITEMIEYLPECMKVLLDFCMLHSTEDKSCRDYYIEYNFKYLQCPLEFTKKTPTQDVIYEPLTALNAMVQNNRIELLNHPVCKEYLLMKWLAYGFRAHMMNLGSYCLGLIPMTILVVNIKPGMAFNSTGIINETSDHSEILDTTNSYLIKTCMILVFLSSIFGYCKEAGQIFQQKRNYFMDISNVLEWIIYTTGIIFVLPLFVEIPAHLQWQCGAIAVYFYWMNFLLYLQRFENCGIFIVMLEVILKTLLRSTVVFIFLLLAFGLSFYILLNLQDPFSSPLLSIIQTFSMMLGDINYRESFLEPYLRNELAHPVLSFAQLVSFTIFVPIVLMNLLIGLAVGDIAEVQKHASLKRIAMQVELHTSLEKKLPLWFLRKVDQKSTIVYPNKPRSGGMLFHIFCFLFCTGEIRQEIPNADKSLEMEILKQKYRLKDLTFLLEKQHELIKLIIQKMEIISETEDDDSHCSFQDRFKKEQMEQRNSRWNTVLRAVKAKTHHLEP
# T2 sequence (O94759 whole entry): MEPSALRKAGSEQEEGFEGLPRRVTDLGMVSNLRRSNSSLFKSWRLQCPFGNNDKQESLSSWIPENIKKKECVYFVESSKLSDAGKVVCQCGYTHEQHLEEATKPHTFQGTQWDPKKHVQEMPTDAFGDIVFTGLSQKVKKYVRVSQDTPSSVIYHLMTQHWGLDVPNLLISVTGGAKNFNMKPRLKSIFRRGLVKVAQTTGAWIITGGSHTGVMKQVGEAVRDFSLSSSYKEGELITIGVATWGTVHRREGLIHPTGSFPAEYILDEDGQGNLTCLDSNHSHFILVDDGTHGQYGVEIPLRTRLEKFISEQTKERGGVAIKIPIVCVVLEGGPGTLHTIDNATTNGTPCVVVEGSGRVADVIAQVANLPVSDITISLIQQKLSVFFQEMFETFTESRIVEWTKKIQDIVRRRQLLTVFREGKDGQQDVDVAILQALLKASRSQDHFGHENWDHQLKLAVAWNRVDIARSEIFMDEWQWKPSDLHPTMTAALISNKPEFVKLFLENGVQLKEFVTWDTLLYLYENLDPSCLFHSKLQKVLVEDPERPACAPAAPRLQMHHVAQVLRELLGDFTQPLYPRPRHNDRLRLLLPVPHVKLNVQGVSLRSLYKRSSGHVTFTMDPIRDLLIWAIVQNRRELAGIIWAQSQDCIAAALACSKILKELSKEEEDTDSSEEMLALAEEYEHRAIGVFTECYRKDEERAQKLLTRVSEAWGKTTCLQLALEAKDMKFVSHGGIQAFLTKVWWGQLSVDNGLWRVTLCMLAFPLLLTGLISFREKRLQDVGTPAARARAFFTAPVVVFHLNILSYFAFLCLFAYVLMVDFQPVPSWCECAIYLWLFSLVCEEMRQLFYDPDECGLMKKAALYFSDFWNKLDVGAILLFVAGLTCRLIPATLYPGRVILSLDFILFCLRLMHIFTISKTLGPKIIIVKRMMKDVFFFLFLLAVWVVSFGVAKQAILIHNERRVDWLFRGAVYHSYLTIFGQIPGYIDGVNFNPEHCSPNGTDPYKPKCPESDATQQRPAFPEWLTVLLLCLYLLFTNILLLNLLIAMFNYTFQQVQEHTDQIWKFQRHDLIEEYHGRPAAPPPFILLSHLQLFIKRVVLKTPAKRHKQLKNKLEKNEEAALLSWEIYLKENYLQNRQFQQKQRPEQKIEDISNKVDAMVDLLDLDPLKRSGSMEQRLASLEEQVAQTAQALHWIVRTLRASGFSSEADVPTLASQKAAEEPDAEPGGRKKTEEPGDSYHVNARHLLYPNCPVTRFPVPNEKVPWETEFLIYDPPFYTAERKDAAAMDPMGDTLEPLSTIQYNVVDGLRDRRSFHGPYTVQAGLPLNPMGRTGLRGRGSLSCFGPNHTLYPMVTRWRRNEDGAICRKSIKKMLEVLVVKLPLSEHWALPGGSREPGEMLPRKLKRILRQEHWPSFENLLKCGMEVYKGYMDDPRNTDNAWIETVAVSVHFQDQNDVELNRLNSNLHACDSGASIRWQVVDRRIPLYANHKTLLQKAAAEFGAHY
# T1 sequence (O35433 whole entry): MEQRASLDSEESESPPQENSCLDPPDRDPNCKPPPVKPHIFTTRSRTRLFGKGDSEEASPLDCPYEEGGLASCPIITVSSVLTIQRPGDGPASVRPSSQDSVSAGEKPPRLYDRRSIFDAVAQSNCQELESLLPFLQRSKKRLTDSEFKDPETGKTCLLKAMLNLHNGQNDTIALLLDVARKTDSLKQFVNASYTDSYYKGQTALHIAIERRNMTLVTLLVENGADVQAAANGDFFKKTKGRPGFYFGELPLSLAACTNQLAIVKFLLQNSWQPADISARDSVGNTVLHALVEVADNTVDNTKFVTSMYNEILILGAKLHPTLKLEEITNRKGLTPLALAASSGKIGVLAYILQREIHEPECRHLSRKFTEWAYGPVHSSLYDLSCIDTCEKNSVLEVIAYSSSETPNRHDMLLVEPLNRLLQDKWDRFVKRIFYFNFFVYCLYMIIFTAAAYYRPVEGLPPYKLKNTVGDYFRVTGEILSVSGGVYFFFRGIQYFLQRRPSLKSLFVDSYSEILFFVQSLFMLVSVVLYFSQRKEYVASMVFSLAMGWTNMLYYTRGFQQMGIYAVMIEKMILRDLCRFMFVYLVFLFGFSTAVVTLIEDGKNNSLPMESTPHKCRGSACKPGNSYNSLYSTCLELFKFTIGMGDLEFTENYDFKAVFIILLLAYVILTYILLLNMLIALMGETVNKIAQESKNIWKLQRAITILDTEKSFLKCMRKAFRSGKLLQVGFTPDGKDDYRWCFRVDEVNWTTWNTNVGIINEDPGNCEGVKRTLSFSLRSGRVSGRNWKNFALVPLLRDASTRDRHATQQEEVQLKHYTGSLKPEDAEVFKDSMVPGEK
compound,measurement,setting,value
COC(=O)C12CN(Cc3ccccc3)CC1(C(=O)OC)CN(Cc1ccccc1)C2 (stereo not shown) [AV3-1],effect on TRPV1,rat TRPV1,only a minor activation
same,effect on TRPM2,human TRPM2,no effect
same,effect on TRPM8,human TRPM8,no effect
same,effect on TRPA1,human TRPA1,activates

# Source: publication PMC12881674, “Activation of TRPV3 channels in bladder cancer cells stimulates ATP release” (Molecular Pharmacology, 2025)
